Usually Ki stands for the dissociation constant of the complex between target and ligand, obtained from inhibition or displacement.

The results in this text go back to the Kinase Knowledgebase extract (Sharma et al. 2016).

In this assay the target is CDK2 (UniProt P24941). As to the kind of experiment: Enzyme Assay.
`Cc1cnc(N[C@@H](CO)c2ccccc2)nc1-c1c[nH]c(C(=O)N[C@H](CO)c2ccccc2)c1` gave a Ki of 100 to 1000 nM. With `Cc1cnc(NC2(CO)CC2)nc1-c1c[nH]c(C(=O)N[C@H](CO)c2ccccc2)c1` the figure was 100 to 1000 nM; with `Cc1cnc(Nc2cccc(F)c2)nc1-c1c[nH]c(C(=O)NC(CO)c2cccc(C(F)(F)F)c2)c1` (configuration not stated), 100 to 1000 nM; with `Cc1cnc(Nc2ccc(OCc3ccccc3)cc2)nc1-c1c[nH]c(C(=O)N[C@H](CO)c2ccccc2)c1`, less than 100 nM. With `Cc1cnc(NCC2CC2)nc1-c1c[nH]c(C(=O)N[C@H](CO)c2ccccc2)c1` the figure was 1000 to 20000 nM. With `COc1ccccc1Nc1ncc(C)c(-c2c[nH]c(C(=O)N[C@H](CO)c3ccccc3)c2)n1`, the Ki was in the range of 1000 to 20000 nM. To `Cc1cnc(NCc2ccccc2)nc1-c1c[nH]c(C(=O)N[C@H](CO)c2ccccc2)c1` belongs 100 to 1000 nM; to `Cc1cnc(N[C@H]2CC[C@H](O)CC2)nc1-c1c[nH]c(C(=O)N[C@H](CO)c2ccccc2)c1`, less than 100 nM; to `CCNc1ncc(C)c(-c2c[nH]c(C(=O)N[C@H](CO)c3ccccc3)c2)n1`, 1000 to 20000 nM. With `Cc1cnc(Nc2ccccc2)nc1-c1c[nH]c(C(=O)NC(CO)c2cccc(C(F)(F)F)c2)c1` (configuration not stated) the figure was 100 to 1000 nM; with `Cc1cnc(NC2CC2)nc1-c1c[nH]c(C(=O)N[C@H](CO)c2ccccc2)c1`, 100 to 1000 nM. To `Cc1cnc(Nc2cccc(C(F)(F)F)c2)nc1-c1c[nH]c(C(=O)N[C@H](CO)c2ccccc2)c1` belongs less than 100 nM.
